From patent publication US4603130A, “1-substituted-2-(piperazinyl or homopiperazinyl)-benzimidazole compounds and pharmaceutical composition” (Kanebo, Ltd., priority 1983, dated 1986)
Counter-ions that a name gives are not always drawn.

Legend:
[1] = system: histamine-induced lethality; assay: Protecting activity against histamine-induced lethality (similar to Labelle-Tislow method), oral; type: in vivo, Hartley strain male and female guinea pigs; settings: Cavia porcellus, 2 h, guinea pig, p.o. 1 h before histamine 1.1 mg/kg i.v., survival after two hours, Probit method, Example 9 as free base, others as fumarate
Protocol: 1. Protecting activity against histamine-induced lethality:
(3) Homochlorcyclizine hydrochloride (reference compound)
The test was carried out by a method similar to Labelle-Tislow method [cf. J. Pharmacol. Exp. Ther., 113, 72, 1955]. […] After one hour, histamine (1.1 mg/kg, in a physiological saline solution) was injected to the animals in cephalic vein. After two hours, the number of live guinea pigs was counted, and therefrom ED50 of the compounds was calculated according to Probit method.

[2] = in vivo; settings: mouse, in vivo, po; mice, p.o., deaths within one week; Weil's method; Example 9 as free base, others as fumarate; read-out: Acute Toxicity LD50
Description: (§1) 2. Acute toxicity (LD50):
(§2) The same compounds as used in the above protecting activity against histamine were used.

[3] = among compounds of U.S. Pat. No. 3,423,413; cited from earlier work
[4] = system: mice; assay: in vivo; settings: p.o., deaths within one week, Weil's method, Example 9 as free base, others as fumarate, 10080 min
Description: as §1, §2

[5] = system: hexobarbital-induced sleep; assay: Potentiating effect on hexobarbital-induced sleep in mice; type: in vivo; settings: 25 mg/kg (p.o.)
Description: Besides, the conventional antihistaminics have side-effect such as hypnotic activity.

Compound	ED50 [1]	LD50 at 168 h [2]	anti-allergic activity [3]	Acute Toxicity LD50 [4]	potentiating effect on hexobarbital-induced sleep [5]
CCOCCn1c(CN2CCCN(C)CC2)nc2ccccc21 [Example 4, 1-(2-ethoxyethyl)-2-(4-methyl-1-homopiperazinyl)methylbenzimidazole]	0.0092 mg/kg	990 mg/kg			
C#CCOCCn1c(CN2CCCN(C)CC2)nc2ccccc21 [Example 12, 1-(2-propargyloxyethyl)-2-(4-methyl-1-homopiperazinyl)methylbenzimidazole]	0.017 mg/kg	524 mg/kg			
CCOCCn1c(CN2CCN(CC)CC2)nc2ccccc21 [Example 5, 1-(2-ethoxyethyl)-2-(4-ethyl-1-piperazinyl)methylbenzimidazole]	0.0067 mg/kg	904 mg/kg			
CCOCCn1c(CN2CCN(CCO)CC2)nc2ccccc21 [Example 7, 1-(2-ethoxyethyl)-2-[4-(2-hydroxyethyl)-1-piperazinyl]methylbenzimidazole]	0.004 mg/kg	> 2000 mg/kg			
OCCN1CCN(Cc2nc3ccccc3n2Cc2ccc(F)cc2)CC1 [Compound A, 1-(4-fluorobenzyl)-2-[4-(2-hydroxyethyl)-1-piperazinyl]methylbenzimidazole, reference compound]	0.026 mg/kg	440 mg/kg	most potent anti-allergic activity		
C=CCOCCn1c(CN2CCN(C)CC2)nc2ccccc21 [Example 10, 1-(2-allyloxyethyl)-2-(4-methyl-1-piperazinyl)methylbenzimidazole]	0.0059 mg/kg	657 mg/kg			
CN1CCCN(C(c2ccccc2)c2ccc(Cl)cc2)CC1 (stereo not drawn) [Homochlorcyclizine hydrochloride, reference compound]	0.26 mg/kg			382 mg/kg	showed remarkable potentiating effect
CCCN1CCN(Cc2nc3ccccc3n2CCOCC)CC1 [Example 6, 1-(2-ethoxyethyl)-2-(4-n-propyl-1-piperazinyl)methylbenzimidazole]	0.0095 mg/kg	303 mg/kg			
CCOCCn1c(CN2CCCNCC2)nc2ccccc21 [Example 2, 1-(2-ethoxyethyl)-2-(1-homopiperazinyl)methylbenzimidazole]	0.014 mg/kg	1540 mg/kg			
C=COCCn1c(CN2CCN(C)CC2)nc2ccccc21 [Example 9, 1-(2-vinyloxyethyl)-2-(4-methyl-1-piperazinyl)methylbenzimidazole]	0.0071 mg/kg	698 mg/kg			
CCCOCCn1c(CN2CCN(C)CC2)nc2ccccc21 [Example 8, 1-(2-n-propoxyethyl)-2-(4-methyl-1-piperazinyl)methylbenzimidazole]	0.0059 mg/kg	1010 mg/kg			
CCOCCn1c(CN2CCNCC2)nc2ccccc21 [Example 1, 1-(2-ethoxyethyl)-2-(1-piperazinyl)methylbenzimidazole]	0.0033 mg/kg	> 2000 mg/kg			
C#CCOCCn1c(CN2CCN(C)CC2)nc2ccccc21 [Example 11, 1-(2-propargyloxyethyl)-2-(4-methyl-1-piperazinyl)methylbenzimidazole]	0.0023 mg/kg	891 mg/kg			
CCOCCn1c(CN2CCN(C)CC2)nc2ccccc21 [Example 3, 1-(2-ethoxyethyl)-2-(4-methyl-1-piperazinyl)methylbenzimidazole]	0.0026 mg/kg	789 mg/kg			
